PubChem BioAssay (NCI)
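Tested at 5 concentrations; 48 h exposure; 96-well plates; endpoints linearly interpolated, else capped at highest concentration. At the GI50, growth is halved. The concentration for full growth arrest is given as TGI.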

Assays:
Assay in all cases: NCI-60 cell line screen, 48 h
HOP-92 NSCLC = system: HOP-92 NSCLC
SW-620 colon = system: SW-620 colon
SK-MEL-2 melanoma = system: SK-MEL-2 melanoma
MOLT-4 leukemia = system: MOLT-4 leukemia
NCI-H226 lung = system: NCI-H226 lung
EKVX NSCLC = system: EKVX NSCLC
MCF7 breast = system: MCF7 breast
SNB-19 CNS = system: SNB-19 CNS
MDA-MB-231 breast = system: MDA-MB-231 breast
MDA-MB-435 = system: MDA-MB-435

Row | Structure (SMILES) | TGI (HOP-92 NSCLC) [µM] | TGI (SW-620 colon) [µM] | TGI (SK-MEL-2 melanoma) [µM] | TGI (MOLT-4 leukemia) [µM] | TGI (NCI-H226 lung) [µM] | TGI (EKVX NSCLC) [µM] | TGI (MCF7 breast) [µM] | TGI (SNB-19 CNS) [µM] | TGI (MDA-MB-231 breast) [µM] | TGI (MDA-MB-435) [µM] | GI50 (HOP-92 NSCLC) [µM] | GI50 (SW-620 colon) [µM] | GI50 (SK-MEL-2 melanoma) [µM] | GI50 (MOLT-4 leukemia) [µM] | GI50 (NCI-H226 lung) [µM] | GI50 (EKVX NSCLC) [µM] | GI50 (MCF7 breast) [nM] | GI50 (SNB-19 CNS) [µM] | GI50 (MDA-MB-231 breast) [µM] | GI50 (MDA-MB-435) [µM]
1 | CCCc1c(OC)c(O)c2c(=O)cc(OC)c3c4c(OC)cc(=O)c5c(O)c(OC)c(CCC)c(c1c23)c54 | 37.4 | 16.9 | 22.1 | 5.69 | 14.8 | 15.3 | 26.5 | 16.8 | 8.54 | 14.3 |  |  |  |  |  |  |  |  |  | 
2 | COc1c(Cl)ccc(Cl)c1-c1nnc(-c2c(Cl)c(Cl)c(Cl)c(Cl)c2-c2nc3ccc(C(=O)c4ccccc4)cc3[nH]2)o1 | > 100 | > 100 | > 100 | > 100 | 78.5 | > 100 | > 100 | > 100 | > 100 | 68 |  |  |  |  |  |  |  |  |  | 
3 | COc1ccc(NC(=O)c2cc(NC(=O)/C=C/c3ccccc3)c(OC)c(OC)c2)cc1 | > 100 | > 100 | 7.27 | > 100 | > 100 | > 100 | > 100 | > 100 | > 100 | 9.38 |  |  |  |  |  |  |  |  |  | 
4 | COc1cc(/C=C/C(=O)OC[C@]23O[C@H]2[C@@H](OC2OC(C)C(O)C(O)C2O)C2C=CO[C@@H](OC4OC(CO)C(O)C(O)C4O)C23)ccc1O (stereo not given in full) | > 100 | > 100 | > 100 | > 100 | > 100 | > 100 | > 100 | > 100 | > 100 | > 100 |  |  |  |  |  |  |  |  |  | 
5 | NC1=CN2c3ccccc3N(CC(=O)N3CCOCC3)C2C=C1 (stereo not given) | > 100 | > 100 | > 100 | > 100 | > 100 | > 100 | > 100 | > 100 | > 100 | > 100 |  |  |  |  |  |  |  |  |  | 
6 | O=C1OS2(OC(=O)c3cccc4cccc2c34)c2ccccc21 (stereo not given) | > 100 | > 100 | > 100 | > 100 | > 100 | > 100 | > 100 | > 100 | > 100 | > 100 |  |  |  |  |  |  |  |  |  | 
7 | NC(=O)c1ccc(N)nc1 | > 400 | > 400 | > 400 | > 400 | > 400 | > 400 | > 400 | > 400 | > 400 | > 400 |  |  |  |  |  |  |  |  |  | 
8 | O=C(NCCc1ccc(F)cc1)c1cc(/C=C/c2cc(O)ccc2O)ccc1O | 3.97 | > 100 | 7.95 | 6.99 | 29.5 | 6.38 | 10.1 | 20.8 | 10.5 | 22 |  |  |  |  |  |  |  |  |  | 
9 | CC(CCC(=O)O)(c1cc(Br)c(O)c(Br)c1)c1cc(Br)c(O)c(Br)c1 | > 100 | > 100 | > 100 | > 100 | > 100 | > 100 | > 100 | > 100 | > 100 | > 100 |  |  |  |  |  |  |  |  |  | 
10 | Clc1ccc2nc3c(c(-c4ccccc4)nn3-c3ccccc3)c(-c3ccccc3)c2c1 | > 100 | > 100 | > 100 | > 100 | > 100 | > 100 | > 100 | > 100 | > 100 | > 100 |  |  |  |  |  |  |  |  |  | 
11 | O=C(/C=C/c1ccco1)c1ccc(Nc2ccnc3cc(Cl)ccc23)cc1 | 62 | > 100 | > 100 | > 100 | > 100 | > 100 | 4.55 | > 100 | 34.7 | > 100 | 15 | 3.51 | 76.7 | 3.18 | > 100 | > 100 | 1460 | > 100 | 12.8 | > 100
12 | CCOC(=O)C(NC(=O)Nc1ccccc1)(Nc1cccc(Cl)c1)C(F)(F)F (stereo not given) | 94.6 | > 100 | > 100 | > 100 | > 100 | > 100 | > 100 | > 100 | > 100 | > 100 |  |  |  |  |  |  |  |  |  | 
13 | Oc1cccc(-c2cc(=S)ss2)c1 | 28.5 | 44.3 | 30.5 | > 100 | 41 | 31.5 | 27.5 | 36.4 | 31.5 | 53.8 |  |  |  |  |  |  |  |  |  | 
14 | O=C(OCc1ccccc1[N+](=O)[O-])N1c2ccccc2[C@@]23O[C@]24CCC[C@H]3C#C/C=C\C#C[C@H]14 | > 100 | > 100 | > 100 | 8.11 | > 100 | > 100 | > 100 | > 100 | > 100 | > 100 |  |  |  |  |  |  |  |  |  | 
15 | CN(CCN(C)Cc1ccc(Cl)c(Cl)c1)CCN1CCCC1 | 82.1 | > 100 | 59.9 | > 72.4 | 94.9 | > 100 | > 85.1 | > 100 | > 96.1 | 24.3 |  |  |  |  |  |  |  |  |  | 
16 | Cc1cc([C@H](C#N)c2nc3ccccc3s2)nc(Cl)n1 | 8.76 | 15.1 | > 100 | > 100 | 35.1 | 59.4 | > 100 | > 100 | 11 | 19.6 |  |  |  |  |  |  |  |  |  | 
17 | O=C(O)C(C1NCCS1)N1Cc2ccccc2C1 (stereo not given) | > 100 | > 100 | > 100 | > 100 | > 100 | > 100 | > 100 | > 100 | > 100 | > 100 |  |  |  |  |  |  |  |  |  | 
